{
  "source": "patent US20230217925A1",
  "about": "“FENCLORIM SEED TREATMENT AS A BIOSTIMULANT” (THE BOARD TRUSTEES OF THE UNIVERSITY OF ARKANSAS, priority 2022, published 2023)",
  "assay_type_in_all_cases": "in vivo",
  "key": {"[1]": {"test_system": "sixteen of the most common rice cultivars planted in the state of Arkansas", "assay": "Cultivar screening, fenclorim seed treatment, field plots, aerial image groundcover", "details": "2.5 g fenclorim per kg of seed vs 0; 45 days after emergence; averaged across all cultivars", "procedure": "(§1) An experiment was conducted to screen for the effects of a fenclorim seed treatment across sixteen of the most common rice cultivars planted in the state of Arkansas. The cultivars screened in the study included ten long-grain inbreds, three medium-grain inbreds, and three long-grain hybrids: ‘Diamond’, ‘Jewel’, ‘DG363L’, ‘CLL 15’, ‘CLL 16’, ‘CLL 17’, ‘PVL02’, ‘PVL03’, ‘RTV7231MA’, ‘CLJ 01’, ‘Jupiter’, ‘Titan’, ‘Lynx’, ‘RT753XP’, ‘RT7321FP’, and ‘RT7521FP’. All seeds were treated with a base treatment comprising a standard rice insecticide (i.e., NipsIt®) and fungicide (i.e., a combination of metalaxyl, fludioxonil, carboxin, and thiram) using a commercial seed treater. Additionally, each seed was treated with 0 or 2.5 g fenclorim per kg of seed. Seed was planted on Apr. 19, 2021, utilizing nine-row plots (5.2 m by 3 m). Aerial images were captured using a DJI Mavic Air 2 45 days after emergence, and images were analyzed using Turf Analyzer."}, "Diamond rice": {"test_system": "Diamond rice", "assay": "Diamond rice evaluation in heavy clay soil, drone image groundcover", "details": "2.5 g fenclorim per kg of seed vs 0, 45 days after emergence", "procedure": "as §1\nAn experiment was conducted to test whether fenclorim seed treatment would influence rice growth in a heavy clay soil. Diamond rice was planted on Apr. 22, 2021, using the same practices as the previous experiment, including a treatment with 0 or 2.5 g fenclorim per kg of seed."}, "rice cultivar Diamond": {"test_system": "rice cultivar Diamond", "assay": "Fenclorim dose-response study, seed treatment (groundcover, shoot numbers)", "details": "for Shoots (%), percentage of shoot numbers produced by control plants: 30 days after emergence; for Groundcover (%): 45 days after emergence", "procedure": "(§2) On Apr. 17, 2021, an experiment was initiated to identify the best rate at which to apply fenclorim as a rice seed treatment. The experiment was conducted using four rice cultivars (Diamond, Titan, RT7521FP, and RT7321FP) and 5 rates of the fenclorim (0, 0.625, 1.25, 2.5, and 5 g/kg seed). Seeds were treated using the aforementioned methods with all seeds having the same base seed treatment. […] At 2.5 g fenclorim per kg of seed, there was a 22% increase (averaged across cultivars) in groundcover compared to the no fenclorim treatment at 45 days after emergence. In this study, rice plant heights and shoot numbers were measured 30 days after emergence. The heights of five random plants were measured per plot and shoot numbers were measured in two 0.5 m sections of row."}, "rice cultivar RT7321FP": {"test_system": "rice cultivar RT7321FP", "assay": "Fenclorim dose-response study, seed treatment (groundcover, shoot numbers)", "details": "for Shoots (%), percentage of shoot numbers produced by control plants: 30 days after emergence; for Groundcover (%): 45 days after emergence", "procedure": "as §2"}, "rice cultivar RT7521FP": {"test_system": "rice cultivar RT7521FP", "assay": "Fenclorim dose-response study, seed treatment (groundcover, shoot numbers)", "details": "for Shoots (%), percentage of shoot numbers produced by control plants: 30 days after emergence; for Groundcover (%): 45 days after emergence", "procedure": "as §2"}, "rice cultivar Titan": {"test_system": "rice cultivar Titan", "assay": "Fenclorim dose-response study, seed treatment (groundcover, shoot numbers)", "details": "for Shoots (%), percentage of shoot numbers produced by control plants: 30 days after emergence; for Groundcover (%): 45 days after emergence", "procedure": "as §2"}, "[2]": {"test_system": "four rice cultivars (Diamond, Titan, RT7521FP, and RT7321FP)", "assay": "Fenclorim dose-response study, results over all four cultivars", "details": "for Increase over control % (groundcover): averaged over all four cultivars, 45 days after emergence", "procedure": "as §2"}, "[3]": {"test_system": "rice seeds of the cultivar Diamond", "assay": "Greenhouse biostimulant experiment", "details": "2.5 g/kg of seed vs 0, 30 days after emergence, silt loam soil", "procedure": "A greenhouse biostimulant experiment was performed in 2 experimental runs. Fenclorim was applied to rice seed at 0 or 2.5 g/kg of seed. Five rice seeds of the cultivar Diamond were planted in silt loam soil in 4″ diameter pots 0.5″ apart. At least 9 replications were performed per run. At 14 days after emergence, emerged rice was counted and thinned to 3 plants per pot. Data were collected 30 days after emergence. The leaf area of the rice plants in each pot was determined. Groundcover was determined based on the number of green leaf pixels from an overhead image. Shoot (aboveground) and root (belowground) biomass were determined, and total biomass was determined by adding the mass of the roots and shoots."}},
  "data": [
    {"smiles": "Clc1cc(Cl)nc(-c2ccccc2)n1", "note": "[fenclorim, 4,6-dichloro-2-phenylpyrimidine]", "values": [
      {"measurement": "increase in groundcover", "setting": "[1]", "result": 7, "unit": "%"},
      {"measurement": "increase in groundcover", "setting": "Diamond rice", "result": 4, "unit": "%"},
      {"measurement": "Shoots (%), percentage of shoot numbers produced by control plants", "setting": "rice cultivar Diamond; 0.625 g/kg seed", "result": 98.6, "unit": "%"},
      {"measurement": "Groundcover (%)", "setting": "rice cultivar Diamond; 0.625 g/kg seed", "result": 47.3, "unit": "%"},
      {"measurement": "Shoots (%), percentage of shoot numbers produced by control plants", "setting": "rice cultivar Diamond; 1.25 g/kg seed", "result": 111.1, "unit": "%"},
      {"measurement": "Groundcover (%)", "setting": "rice cultivar Diamond; 1.25 g/kg seed", "result": 54.6, "unit": "%"},
      {"measurement": "Shoots (%), percentage of shoot numbers produced by control plants", "setting": "rice cultivar Diamond; 2.5 g/kg seed", "result": 106.9, "unit": "%"},
      {"measurement": "Groundcover (%)", "setting": "rice cultivar Diamond; 2.5 g/kg seed", "result": 54.2, "unit": "%"},
      {"measurement": "Shoots (%), percentage of shoot numbers produced by control plants", "setting": "rice cultivar Diamond; 5.0 g/kg seed", "result": 100, "unit": "%"},
      {"measurement": "Groundcover (%)", "setting": "rice cultivar Diamond; 5.0 g/kg seed", "result": 52.2, "unit": "%"},
      {"measurement": "Shoots (%), percentage of shoot numbers produced by control plants", "setting": "rice cultivar RT7321FP; 0.625 g/kg seed", "result": 115.2, "unit": "%"},
      {"measurement": "Groundcover (%)", "setting": "rice cultivar RT7321FP; 0.625 g/kg seed", "result": 41.2, "unit": "%"},
      {"measurement": "Shoots (%), percentage of shoot numbers produced by control plants", "setting": "rice cultivar RT7321FP; 1.25 g/kg seed", "result": 110.3, "unit": "%"},
      {"measurement": "Groundcover (%)", "setting": "rice cultivar RT7321FP; 1.25 g/kg seed", "result": 46.0, "unit": "%"},
      {"measurement": "Shoots (%), percentage of shoot numbers produced by control plants", "setting": "rice cultivar RT7321FP; 2.5 g/kg seed", "result": 108.4, "unit": "%"},
      {"measurement": "Groundcover (%)", "setting": "rice cultivar RT7321FP; 2.5 g/kg seed", "result": 53.9, "unit": "%"},
      {"measurement": "Shoots (%), percentage of shoot numbers produced by control plants", "setting": "rice cultivar RT7321FP; 5.0 g/kg seed", "result": 112.3, "unit": "%"},
      {"measurement": "Groundcover (%)", "setting": "rice cultivar RT7321FP; 5.0 g/kg seed", "result": 50.3, "unit": "%"},
      {"measurement": "Shoots (%), percentage of shoot numbers produced by control plants", "setting": "rice cultivar RT7521FP; 0.625 g/kg seed", "result": 110.7, "unit": "%"},
      {"measurement": "Groundcover (%)", "setting": "rice cultivar RT7521FP; 0.625 g/kg seed", "result": 51.8, "unit": "%"},
      {"measurement": "Shoots (%), percentage of shoot numbers produced by control plants", "setting": "rice cultivar RT7521FP; 1.25 g/kg seed", "result": 112.4, "unit": "%"},
      {"measurement": "Groundcover (%)", "setting": "rice cultivar RT7521FP; 1.25 g/kg seed", "result": 52.5, "unit": "%"},
      {"measurement": "Shoots (%), percentage of shoot numbers produced by control plants", "setting": "rice cultivar RT7521FP; 2.5 g/kg seed", "result": 108.8, "unit": "%"},
      {"measurement": "Groundcover (%)", "setting": "rice cultivar RT7521FP; 2.5 g/kg seed", "result": 51.2, "unit": "%"},
      {"measurement": "Shoots (%), percentage of shoot numbers produced by control plants", "setting": "rice cultivar RT7521FP; 5.0 g/kg seed", "result": 111.9, "unit": "%"},
      {"measurement": "Groundcover (%)", "setting": "rice cultivar RT7521FP; 5.0 g/kg seed", "result": 55.9, "unit": "%"},
      {"measurement": "Shoots (%), percentage of shoot numbers produced by control plants", "setting": "rice cultivar Titan; 0.625 g/kg seed", "result": 111.1, "unit": "%"},
      {"measurement": "Groundcover (%)", "setting": "rice cultivar Titan; 0.625 g/kg seed", "result": 49.3, "unit": "%"},
      {"measurement": "Shoots (%), percentage of shoot numbers produced by control plants", "setting": "rice cultivar Titan; 1.25 g/kg seed", "result": 110.5, "unit": "%"},
      {"measurement": "Groundcover (%)", "setting": "rice cultivar Titan; 1.25 g/kg seed", "result": 47.3, "unit": "%"},
      {"measurement": "Shoots (%), percentage of shoot numbers produced by control plants", "setting": "rice cultivar Titan; 2.5 g/kg seed", "result": 105.3, "unit": "%"},
      {"measurement": "Groundcover (%)", "setting": "rice cultivar Titan; 2.5 g/kg seed", "result": 48.1, "unit": "%"},
      {"measurement": "Shoots (%), percentage of shoot numbers produced by control plants", "setting": "rice cultivar Titan; 5.0 g/kg seed", "result": 102.4, "unit": "%"},
      {"measurement": "Groundcover (%)", "setting": "rice cultivar Titan; 5.0 g/kg seed", "result": 50.6, "unit": "%"},
      {"measurement": "rice plant heights", "setting": "[2]; 0.625-5 g/kg seed vs 0, 30 days after emergence, five random plants per plot", "result": "not influenced"},
      {"measurement": "shoot number, effect as the seed treatment rate increased", "setting": "[2]; 0.625-5 g/kg seed vs 0, 30 days after emergence, two 0.5 m sections of row", "result": "an increase in shoot number was observed"},
      {"measurement": "Increase over control % (groundcover)", "setting": "[2]; 0.625 g/kg seed", "result": 12, "unit": "%"},
      {"measurement": "Increase over control % (groundcover)", "setting": "[2]; 1.25 g/kg seed", "result": 18, "unit": "%"},
      {"measurement": "Increase over control % (groundcover)", "setting": "[2]; 2.5 g/kg seed", "result": 22, "unit": "%"},
      {"measurement": "Increase over control % (groundcover)", "setting": "[2]; 5.0 g/kg seed", "result": 23, "unit": "%"},
      {"measurement": "increase in aboveground biomass", "setting": "[3]", "result": 14, "unit": "%"},
      {"measurement": "increase in belowground biomass", "setting": "[3]", "result": 63, "unit": "%"},
      {"measurement": "increase in groundcover", "setting": "[3]", "result": 15, "unit": "%"},
      {"measurement": "increase in leaf area", "setting": "[3]", "result": 23, "unit": "%"},
      {"measurement": "increase in total biomass", "setting": "[3]", "result": 40, "unit": "%"}
    ]}
  ]
}
